In US9713613B2, “Methods and compositions for the treatment of cancer and related hyperproliferative disorders” (priority 2007, dated 2017):

Tested on: SREBP-2
Test: Western blot analysis of SREBP processing in CHO-K1 cells
Assay type: cell-based, Chinese hamster
Description: To determine if fatostatin affects the ER-Golgi translocation and proteolytic processing of SREBPs, a reporter assay developed by Sakai et al. (1998) was used. PLAP-BP2 in transfected CHO-K1 cells remains membrane-bound unless it is cleaved by S1P in the Golgi and secreted into the culture medium. In the assay, a secreted alkaline phosphatase, fused with an SREBP-2 fragment lacking the NH2-terminal DNA-binding domain (PLAP-BP2513-1141), permits monitoring of translocation and processing through changes in the fluorescence of a fluorogenic phosphatase substrate (FIG. 18C). When cells were co-transfected with plasmids encoding PLAP-BP2513-1141 and SCAP, PLAP phosphatase was secreted, generating fluorescence signals. […] The fatostatin-mediated inhibition of SREBP activation was confirmed by western blot analysis of SREBPs. […] Similar results were obtained for SREBP-1 (FIG. 22).
Western blot analysis of SREBP processing. […] The protein concentration of each total cell extract was measured (BCA kit; Pierce), after which a 22-33 μg aliquot of cell extract was mixed with 0.25 volume of buffer (250 mM Tris-HCl, pH 6.8, 10% SDS, 25% glycerol, 0.2% (w/v) bromophenol blue, and 5% (v/v) 2-mercaptoethanol), heated for 7 min at 95° C. […]

With `CCCc1cc(-c2nc(-c3ccc(C)cc3)cs2)ccn1` [Compound 1, 2-propyl-4-(4-p-tolylthiazol-2-yl)pyridine] the “amounts of mature and precursor forms of SREBP-2 (western blot)” value was “decreased the amount of the 68 KDa mature form of SREBP-2”.
